The values that follow are results of earlier work, collected in the CATMoS acute toxicity set (Mansouri et al. 2021).

The structures appear in SMILES notation.

As usually defined, the LD50 is the dose expected to kill half of the subjects tested.

This series is described as follows: rat acute oral toxicity. The note with it: in vivo.
Take `CCOP(=O)(OCC)SCN1C(=O)c2ccccc2C1=O`: the 50% lethal dose (LD50) is 11 mg/kg.
`C(=Nc1ccc(N=Cc2ccco2)cc1)c1ccco1`: the LD50 was 1220 mg/kg.
On to `SCCc1cnccn1`, for which the LD50 is 158 mg/kg.
`CCOC(=S)C=Cc1ccc(OC)c(OC)c1`: the LD50 is 980 mg/kg.
In the case of `CN1CCC(N(Cc2cccs2)c2ccccc2)CC1`, the median lethal dose (LD50) was 1060 mg/kg.
With `C/C=C/C(=O)OCC`, the 50% lethal dose (LD50) was 3000 mg/kg.
With `Nc1ccc(S(=O)(=O)O)c2cccc(O)c12`, the LD50 is 6210 mg/kg.
With `CCCCOCCOC(=O)c1ccccc1C(=O)OCCOCCCC`, the LD50 is 8380 mg/kg.
On to `COP(=O)(OC)OC(C)=CC(=O)OCc1ccccc1`, for which the LD50 is 56 mg/kg.
On to `CCCSCSP(=S)(OCC)OCC`, for which the 50% lethal dose (LD50) is 2.8 mg/kg.
`CC1CCCC(C)N1CCCNc1n[nH]c2ccccc12` (configuration not stated): the 50% lethal dose (LD50) is 700 mg/kg.
Take `Cc1c[nH]c2ccccc12`: the median lethal dose (LD50) was 3450 mg/kg.
Turning to `COP(=O)(SC(C)C)SC(C)C`, the LD50 was 119 mg/kg.
In the case of `COc1ccc(C(OC)C2CCCCC2N2CCCCC2)cc1` (configuration not stated), the 50% lethal dose (LD50) is 92 mg/kg.
Regarding `CNC(=O)N(C)c1nnc(C(F)(F)F)s1`, the LD50 is 278 mg/kg.
Take `O=C(OCC(Cl)(Cl)Cl)c1ccco1`: the median lethal dose (LD50) is 600 mg/kg.
In the case of `CC[C@@H](CO)NC(=O)[C@@H]1C=C2c3cccc4[nH]cc(c34)C[C@H]2N(C)C1`, the LD50 is 93 mg/kg.
Regarding `ClCCCCCCCl`, the median lethal dose (LD50) is 2680 mg/kg.
`CC(C)C(Br)C(=O)O` (configuration not stated): the LD50 is 769 mg/kg.
In the case of `CCOC(OCC)OCC`, the 50% lethal dose (LD50) is 7060 mg/kg.
As for `CCN1CN(CC)CN(CC)C1`, the LD50 was 316 mg/kg.
As to `O=C(Nc1cccc(Cl)c1)OCC#CCCl`, the 50% lethal dose (LD50) is 527 mg/kg.
For the molecule `CC[C@@H](C(=O)[C@@H](C)[C@@H](O)[C@H](C)CCc1ccc(C)c(O)c1C(=O)O)[C@H]1O[C@](CC)([C@H]2CC[C@](O)(CC)[C@H](C)O2)C[C@@H]1C`, the 50% lethal dose (LD50) was 122 mg/kg.
On to `COP(=O)(NC(=O)CCCCl)SC` (configuration not stated), for which the 50% lethal dose (LD50) is 3 mg/kg.
For the molecule `CC(C)COCC(C)O` (configuration not stated), the LD50 is 4290 mg/kg.
Regarding `CC1=CC(=C2C(=O)c3ccccc3C2=O)C=CN1CCN1CCCCC1`, the LD50 was 390 mg/kg.
As to `Cc1cccc(N2CCN(CC=Cc3ccc4c(c3)CCC(=O)N4)CC2)c1`, the median lethal dose (LD50) is 500 mg/kg.
For the molecule `CC(COc1ccccc1)N(CCCl)Cc1ccccc1` (configuration not stated), the median lethal dose (LD50) is 2500 mg/kg.
For `CC(C)(C)c1cc(C(=O)c2cccs2)cc(C(C)(C)C)c1O`, the LD50 was 1620 mg/kg.
Regarding `OC1(c2ccc(Cl)cc2)N=CN[n+]2ccc3ccccc3c21` (configuration not stated), the median lethal dose (LD50) was 1300 mg/kg.
Consider `Cc1cccc2c1C(=O)C(c1c(Cl)cccc1Cl)C2=O` (configuration not stated), for which the 50% lethal dose (LD50) was 466 mg/kg.
Turning to `CNC(=O)ON=C1CSC(C)CS1` (configuration not stated), the LD50 was 5.1 mg/kg.
As for `CCOC(=O)c1ccc(OC(=O)CCCCCNC(=N)N)cc1`, the LD50 was 6480 mg/kg.
In the case of `COc1ccc(CC2CNC(=O)N2)cc1OC1CCCC1` (configuration not stated), the 50% lethal dose (LD50) is 600 mg/kg.
Take `C=CC(=O)NCO`: the LD50 was 474 mg/kg.
With `CCOCCOCC`, the LD50 was 4390 mg/kg.
Turning to `CC(C)(C)C(=O)CCC1C(=O)N(c2ccccc2)N(c2ccccc2)C1=O`, the LD50 was 455 mg/kg.
`COc1ccc(CCNCC(O)COc2cccc(C)c2)cc1OC` (configuration not stated): the LD50 was 460 mg/kg.
Take `CC(C)NCC(O)c1ccc(NS(C)(=O)=O)cc1` (configuration not stated): the median lethal dose (LD50) was 3450 mg/kg.
`CCC1OCCSC1=NOC(=O)NC` (configuration not stated): the median lethal dose (LD50) was 19 mg/kg.
For `CCCOC(=O)CC(SP(=S)(OC)OC)C(=O)OCCC` (configuration not stated), the LD50 was 6000 mg/kg.
Regarding `Cl/C(=N/Nc1c(Cl)cc(Cl)cc1Cl)c1ccccc1`, the LD50 was 718 mg/kg.
In the case of `CC(C)=NNC(N)=S`, the 50% lethal dose (LD50) was 48.5 mg/kg.
`Cc1cc(Sc2cc(C)c(O)c(C(C)(C)C)c2)cc(C(C)(C)C)c1O`: the 50% lethal dose (LD50) is 6340 mg/kg.
For `CC(=O)OC(C)(C)CCc1ccccc1`, the 50% lethal dose (LD50) is 4850 mg/kg.
`CCCCC(CC)COCCC(=O)O` (configuration not stated): the 50% lethal dose (LD50) is 3730 mg/kg.
For `O=C(O)CS(=O)(=O)O`, the 50% lethal dose (LD50) is 3160 mg/kg.
With `Nc1ccc(C(=O)O)cc1`, the 50% lethal dose (LD50) was 8000 mg/kg.
Take `C1=CC2C3CCC(C3)C2C1` (configuration not stated): the median lethal dose (LD50) was 670 mg/kg.
In the case of `O=C1N(Cc2ccccc2)C2C[S+]3CCCC3C2N1Cc1ccccc1` (configuration not stated), the median lethal dose (LD50) was 2490 mg/kg.
Take `COc1ccc(C(CCCc2ccccc2)N(C)C)cc1OC` (configuration not stated): the LD50 is 500 mg/kg.
Turning to `CN(C)c1ccc(N)cc1`, the LD50 was 48 mg/kg.
Take `CCC(C)c1cnc2nc(N)nc(N)c2c1C` (configuration not stated): the LD50 was 100 mg/kg.
As for `C=CC(=O)OCCCCCCC`, the LD50 is 4500 mg/kg.
Turning to `O=C(OCC(O)C1COc2ccccc2O1)N1CCOCC1` (configuration not stated), the LD50 was 1500 mg/kg.
With `NC(Cc1ccc(Oc2ccc(N(CCCl)CCCl)cc2)cc1)C(=O)O` (configuration not stated), the LD50 is 620 mg/kg.
Regarding `O=C(CCN1CCN2c3ccccc3CCC2C1)Cc1ccc(F)cc1` (configuration not stated), the 50% lethal dose (LD50) is 800 mg/kg.
For `CCCCOCCC(=O)O`, the LD50 is 5190 mg/kg.
As for `Cc1c(Cl)ccc2[nH]c(C(F)(F)F)nc12`, the 50% lethal dose (LD50) was 22 mg/kg.
Turning to `O=c1ncc2[nH]c(=O)[nH]c2[nH]1`, the LD50 is 1820 mg/kg.
In the case of `FC(F)(F)c1nc2c(Br)c(Br)c(Br)cc2[nH]1`, the LD50 was 7.18 mg/kg.
For `CC(=O)OCCC1=CC2CC(C1)C2(C)C` (configuration not stated), the LD50 was 3000 mg/kg.
On to `COc1c(C)c2c(c(O)c1C/C=C(\C)CCC(=O)O)C(=O)OC2`, for which the LD50 is 352 mg/kg.
With `C#CC(O)C=CC` (configuration not stated), the 50% lethal dose (LD50) is 34 mg/kg.
Take `CCCCC(CC)COC(C[n+]1ccccc1)c1ccccc1` (configuration not stated): the LD50 is 250 mg/kg.
Take `Cc1cc(=O)nc(C(C)C)[nH]1`: the 50% lethal dose (LD50) is 2700 mg/kg.
In the case of `Cc1ccc(C)nc1`, the LD50 is 800 mg/kg.
For `CCCCc1ccn[nH]1`, the LD50 is 509 mg/kg.
For `O=C1CN=C(c2ccccn2)c2cc(Br)ccc2N1`, the 50% lethal dose (LD50) is 1950 mg/kg.
With `CC(CO)CCO` (configuration not stated), the LD50 was 5460 mg/kg.
As for `CC(=O)C=Cc1ccc2c(c1)OCO2`, the LD50 is 4000 mg/kg.
As for `CC(O)CC=O` (configuration not stated), the LD50 was 2180 mg/kg.
In the case of `c1ccc2c(c1)Sc1ccccc1N2CCCN1CCOCC1`, the median lethal dose (LD50) is 1000 mg/kg.
Regarding `COc1ccccc1N1CCN(CCCOc2ccc(N)cc2)CC1`, the LD50 is 416 mg/kg.
In the case of `NC(=O)Cc1c([O-])on[n+]1Cc1ccccc1`, the median lethal dose (LD50) was 4450 mg/kg.
As for `C[C@H](NCC=C(c1ccsc1)c1ccsc1)[C@H](O)c1ccccc1`, the 50% lethal dose (LD50) was 6600 mg/kg.
For `CCC(=O)OC(CC)(c1ccccc1)C1CCN(C)C1` (configuration not stated), the 50% lethal dose (LD50) is 460 mg/kg.
For `CCC(C)C(CN(C)C)c1ccc(Cl)cc1Cl` (configuration not stated), the 50% lethal dose (LD50) is 567 mg/kg.
In the case of `CCN(CCCOS(C)(=O)=O)CCCOS(C)(=O)=O`, the LD50 is 375 mg/kg.
On to `CCN(CC(=O)OCC(F)(F)F)c1cccc(C)c1`, for which the LD50 was 1900 mg/kg.
`O=C1C=CC(=O)N1c1cccc(N2C(=O)C=CC2=O)c1`: the LD50 was 1370 mg/kg.
Regarding `COc1c(O)c(Cl)c(Cl)c(Cl)c1Cl`, the LD50 is 1690 mg/kg.
As to `CC1=CCC(C(C)C)C=C1` (configuration not stated), the LD50 is 5700 mg/kg.
As for `C=COC`, the 50% lethal dose (LD50) was 4900 mg/kg.
Regarding `CC=CC(C)=O`, the LD50 is 3200 mg/kg.
As to `CNS(=O)(=O)c1cc(Cl)c(Cl)cc1Cl`, the LD50 was 5100 mg/kg.
`CC(C)(C)CC(C)(C)S`: the LD50 is 52 mg/kg.
`Oc1ccc(Nc2ccccc2)cc1`: the LD50 was 3300 mg/kg.
Consider `C=C(OP(=O)(OCC)OCC)c1ccc(Cl)cc1Cl`, for which the 50% lethal dose (LD50) was 1530 mg/kg.
Consider `COP(N)(=S)Oc1ccccc1C(=O)OC(C)C` (configuration not stated), for which the LD50 was 50 mg/kg.
For `N/C(CNc1ccc(Cl)c(Cl)c1)=N/O`, the median lethal dose (LD50) was 245 mg/kg.
`CNc1c(Cl)cc(C(=O)NC2CC2)cc1Cl`: the LD50 is 262 mg/kg.
